We go through 31 molecules from PMC4890880 (ACS infectious diseases, 2016).

For assay [1], the system named is Plasmodium berghei (Pb-Luc) exoerythrocytic-stage parasites. Description: microbe, parasite or virus in culture. Particulars: for inhibition at 10 µM: read-out: PbLuc max inhibition (%) @ 10 uM.
Assay [2] concerns HepG2-A16-CD81EGFP cells. The experiment in a line: cells. Particulars: Homo sapiens, HepG2, read-out: % inhibition.
The test system of assay [3] is HepG2-A16-CD81EGFP cells. Description: cells. Conditions: Homo sapiens, HepG2, read-out: % inhibition. This is another data set of the same source.
Assay [4] addresses QuantiLum Recombinant Luciferase (Photinus pyralis, UniProt P08659). Description: Bioluminescence quantification of compound luciferase inhibition. Conditions: for Emax: read-out: LucInhib max inhibition.
In assay [5] the test system is HepG2-A16-CD81EGFP cells. Description: cells. Particulars: Homo sapiens; for IC50: HepG2, read-out: Tox IC50; for inhibition at 50 µM: HepG2, read-out: Tox max inhibition (%) @ 50 uM; for inhibition at 10 µM: HepG2, read-out: Tox max inhibition (%) @ 10 uM.
The mark [6] stands for this setting: read-out: Inhibition% @ 50 uM rep1.
[7] abbreviates: read-out: Inhibition% @ 50 uM rep2.
Setting [8] is: read-out: PbLuc IC50, dose response, 1/3 dilutions, max conc. 10 or 50 uM, unit inferred.
Setting [9] is: read-out: PbLuc max inhibition (%) @ 50 uM.
Setting [10] is: HepG2, read-out: HepG2 Tox% @ 50 uM rep1.
The mark [11] stands for this setting: HepG2, read-out: HepG2 Tox% @ 50 uM rep2.

Like-named read-outs stand apart in the source and are kept apart here.

Sequence of QuantiLum Recombinant Luciferase (P08659 whole entry): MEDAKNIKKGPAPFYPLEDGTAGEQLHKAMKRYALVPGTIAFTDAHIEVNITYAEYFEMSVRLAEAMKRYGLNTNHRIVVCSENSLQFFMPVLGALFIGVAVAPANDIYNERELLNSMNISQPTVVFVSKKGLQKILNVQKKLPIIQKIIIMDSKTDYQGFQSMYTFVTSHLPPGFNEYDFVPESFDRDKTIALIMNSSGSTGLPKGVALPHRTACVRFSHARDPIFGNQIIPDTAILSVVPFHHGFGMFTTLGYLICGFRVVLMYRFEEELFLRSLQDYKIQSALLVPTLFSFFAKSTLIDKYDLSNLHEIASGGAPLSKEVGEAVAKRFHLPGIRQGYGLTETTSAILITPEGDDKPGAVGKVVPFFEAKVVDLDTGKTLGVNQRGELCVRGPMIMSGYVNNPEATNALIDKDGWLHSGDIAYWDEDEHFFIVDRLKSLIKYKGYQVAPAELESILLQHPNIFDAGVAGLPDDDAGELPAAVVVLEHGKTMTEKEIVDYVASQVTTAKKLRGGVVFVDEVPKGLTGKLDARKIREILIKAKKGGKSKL

Usually inhibition stands for the drop in the measured response relative to a control, in per cent. In the case of `CCOc1cc2c(cc1OCC)C(c1cc(C)c(O)c(C)c1)NCC2` (centres unmarked) [MMV000483], the inhibition at 50 µM in assay [1] (setting [6]) stood at 69%; in assay [1] (setting [7]), 61%; in assay [2] it was 55.7%; in assay [3] it was 23%.
Regarding `COc1ccc(C2Sc3ccccc3N=C3C2=C(O)c2ccccc23)cc1` (centres unmarked) [MMV000563], the inhibition at 50 µM in assay [1] (setting [6]) is 103%; in assay [1] (setting [7]), 104%; in assay [2] it was 71.1%; in assay [3], 62.5%.
For the molecule `CC1CCCCN1CCCNC(=O)c1ccc2c(c1)sc1nc(-c3ccc(F)cc3)cn12` (centres unmarked) [MMV000634], the inhibition at 50 µM in assay [1] (setting [6]) is 103%; in assay [1] (setting [7]), 103%; in assay [2], 98.9%; in assay [3] it was 97%.
On to `COc1ccccc1CNC(=O)C1c2ccccc2C(=O)N(CC(C)C)C1c1cccs1` (centres unmarked) [MMV000648], for which the inhibition at 50 µM in assay [1] (setting [6]) is 103%; in assay [1] (setting [7]), 105%; in assay [2], 91.6%; in assay [3] it was 83.2%.
Regarding `CCOc1ccccc1CNC(=O)C1c2ccccc2C(=O)N(CC(C)C)C1c1cccs1` (centres unmarked) [MMV000653], the inhibition at 50 µM worked out at 104% in assay [1] (setting [6]), 106% in assay [1] (setting [7]), 94% in assay [2] and 90.2% in assay [3].
In the case of `OC(CNC1CCCC1)Cn1c2ccccc2c2ccccc21` (centres unmarked) [MMV000848], the inhibition at 50 µM in assay [1] (setting [6]) stood at 103%; in assay [1] (setting [7]) it was 104%; in assay [2], 99.2%; in assay [3], 96.9%.
The matching figures for `O=C1CC(O)(C(F)(F)C(F)(F)F)Oc2ccccc21` (centres unmarked) [MMV000972]: 103%, 105%, 97.9% and 96.7%.
On the same counts, the results for `Cc1ccc(Nc2nc(NCCO)c3ccccc3n2)cc1C` [MMV001038] are 102%, 102%, 96.1% and 94.2%.
As to `CSc1ccccc1C(=O)Nc1nc(-c2ccccn2)cs1` [MMV001246], the inhibition at 50 µM is 101% in assay [1] (setting [6]), 104% in assay [1] (setting [7]), 86.4% in assay [2] and 82.2% in assay [3].
Take `CCCCc1ccc(NS(=O)(=O)c2cc3c4c(c2)CCN4C(=O)CC3)cc1` [MMV001255]: the inhibition at 50 µM came to 98% in assay [1] (setting [6]), 92% in assay [1] (setting [7]), 77.1% in assay [2] and 67.8% in assay [3].
The matching figures for `O=C(Nc1ccc(Br)cc1)Nc1cccc(Cl)c1` [MMV001318]: 103%, 102%, 65.5% and 66.2%.
In the case of `CCc1c(C)c(=N)c2ccccc2n1C` [MMV006278], the inhibition at 50 µM was 100% in assay [1] (setting [6]), 101% in assay [1] (setting [7]), 77.8% in assay [2] and 71% in assay [3].
On to `CN(C)c1ccc(C=Cc2nc(=O)c3ccccc3o2)cc1` [MMV006309], for which the inhibition at 50 µM was found to be 104% in assay [1] (setting [6]), 105% in assay [1] (setting [7]), 98.3% in assay [2] and 96.7% in assay [3].
The matching figures for `CCOC(=O)c1ccc2nc(-c3ccccc3)cc(O)c2c1` [MMV006457]: 102%, 104%, 82.5% and 78.2%.
As for `COc1ccc(-c2nc3cc(Cc4ccc5[nH]c(-c6ccc(OC)cc6)nc5c4)ccc3[nH]2)cc1` [MMV007384], the inhibition at 50 µM in assay [1] (setting [6]) is 104%; in assay [1] (setting [7]), 105%; in assay [2], 99.2%; in assay [3] it was 96%.
With `CCCCCCOC(=O)C1=C(C)NC(=O)NC1c1ccccc1F` (centres unmarked) [MMV007686], the inhibition at 50 µM in assay [1] (setting [6]) was found to be 69%; in assay [1] (setting [7]), 63%; in assay [2], 4.22%; in assay [3] it was 19.1%.
Consider `O=c1nc(C=Cc2ccc(Cl)cc2)oc2ccccc12` [MMV007977], for which the inhibition at 50 µM in assay [1] (setting [6]) came to 104%; in assay [1] (setting [7]), 106%; in assay [2], 85.9%; in assay [3], 78.9%.
Take `CCOC(=O)c1cnc2c(C)cc(C)cc2c1Nc1ccc(OC)c(OC)c1` [MMV008294]: the inhibition at 50 µM in assay [1] (setting [6]) was 0.759%; in assay [1] (setting [7]) it was 0%; in assay [2] it was -1.86%; in assay [3] it was 1.7%.
On the same counts, the results for `CCCc1c(CC)c(=N)c2ccccc2n1C` [MMV008416] are 101%, 104%, 84% and 83.1%.
For the molecule `CCN(CC)S(=O)(=O)c1ccc(-c2csc(Nc3ccc(C)c(C)c3)n2)cc1` [MMV009108], the inhibition at 50 µM in assay [1] (setting [6]) came to 97%; in assay [1] (setting [7]), 96%; in assay [2], 80.9%; in assay [3], 72.2%.
On to `Cc1cc(Nc2ccc3ccccc3c2)n2ncnc2n1` [MMV011099], for which the inhibition at 50 µM amounted to 101% in assay [1] (setting [6]), 102% in assay [1] (setting [7]), 86.3% in assay [2] and 88.4% in assay [3].
For `Cc1cc(Nc2ccc(Cl)cc2)n2nc(C(F)(F)F)nc2n1` [MMV011256], the inhibition at 50 µM in assay [1] (setting [6]) was 102%; in assay [1] (setting [7]) it was 104%; in assay [2], 37.8%; in assay [3], 37.6%.
In the case of `COc1ccc(C(=O)Nc2nonc2-c2ccc(OC)c(OC)c2)cc1Cl` [MMV011567], the inhibition at 50 µM is 58% in assay [1] (setting [6]), 80% in assay [1] (setting [7]), 2.69% in assay [2] and -1.34% in assay [3].
On to `Oc1ccccc1CN1CCN(C(c2ccccc2)c2ccccc2)CC1` [MMV011795], for which the inhibition at 50 µM stood at 100% in assay [1] (setting [6]), 102% in assay [1] (setting [7]), 51.4% in assay [2] and 77.8% in assay [3].
On to `COc1cccc(-c2nn(C)c3sc(C(=O)NCCN4CCN(c5ccccc5F)CC4)cc23)c1` [MMV019064], for which the inhibition at 50 µM in assay [1] (setting [6]) was 103%; in assay [1] (setting [7]), 104%; in assay [2] it was 82.3%; in assay [3] it was 53.8%.
In the case of `Cc1ccc(N2C(=O)C3C(C2=O)C2(c4ccccc4)C(=O)C3(c3ccccc3)C(c3ccccc3)=C2c2ccccc2)cc1` (centres unmarked) [MMV666062], the inhibition at 50 µM worked out at 91% in assay [1] (setting [6]), 100% in assay [1] (setting [7]), 102% in assay [1] (setting [9]) and 9% in assay [5]. Also, the IC50 in assay [1] (setting [8]) is 6540 nM; in assay [4], greater than 50 µM; in assay [5], greater than 50 µM. Moreover, the Emax in assay [4] turned out to be 23%. In addition, the cytotoxicity at 50 µM in assay [5] (setting [10]) worked out at 1.06%; in assay [5] (setting [11]), 8.55%.
Turning to `O=C(NC1CCCC1)c1ccc(N2CCC(NCc3cccc(C(F)(F)F)c3)CC2)cc1` [MMV666070], the inhibition at 50 µM in assay [1] (setting [6]) turned out to be 98%; in assay [1] (setting [7]), 96%; in assay [1] (setting [9]) it was 98%; in assay [5], 10%. Also, the IC50 in assay [1] (setting [8]) is 1860 nM; in assay [4] it was greater than 50 µM; in assay [5], greater than 50 µM. For the same molecule, the Emax in assay [4] stood at 18%. For the same molecule, the cytotoxicity at 50 µM in assay [5] (setting [10]) was -11%; in assay [5] (setting [11]), 8.43%.
With `CCCc1c(C)nc2ccccc2c1O` [MMV666081], the inhibition at 50 µM was found to be 101% in assay [1] (setting [6]) and 103% in assay [1] (setting [7]). Further, the IC50 in assay [1] (setting [8]) is 195 nM; in assay [4], greater than 20 µM; in assay [5], greater than 10 µM. In addition, the results for the inhibition at 10 µM in assay [1] and in assay [5] were 100% and 2.31%, respectively. In addition, the Emax in assay [4] worked out at 18%. In addition, the cytotoxicity at 50 µM in assay [5] (setting [10]) is 0.331%; in assay [5] (setting [11]) it was -5.31%.
As to `CCCc1c(C)nc2ccc(Br)cc2c1O` [MMV666095], the inhibition at 50 µM in assay [1] (setting [6]) was 102%; in assay [1] (setting [7]) it was 103%; in assay [1] (setting [9]) it was 106%; in assay [5], -6%. For the same molecule, the values for the IC50 in assay [1] (setting [8]), in assay [4] and in assay [5] were 794 nM, greater than 50 µM and greater than 50 µM, respectively. The Emax in assay [4] stood at 25%. The cytotoxicity at 50 µM in assay [5] (setting [10]) is -21%.
Turning to `CC(C)(C)c1ccc(C(=O)Nc2c3c(nn2-c2cccc(Cl)c2)CSC3)cc1` [MMV666123], the inhibition at 50 µM turned out to be 101% in assay [1] (setting [6]), 102% in assay [1] (setting [7]), 103% in assay [1] (setting [9]) and 10% in assay [5]. The values for the IC50 in assay [1] (setting [8]), in assay [4] and in assay [5] were 10100 nM, greater than 50 µM and greater than 50 µM, respectively. The Emax in assay [4] turned out to be 23%. The cytotoxicity at 50 µM in assay [5] (setting [10]) was 18%.
For the molecule `O=[N+]([O-])c1ccc(C=NNc2nc3ccccc3[nH]2)cc1` [MMV666607], the inhibition at 50 µM is -47% in assay [1] (setting [6]) and -99% in assay [1] (setting [7]). The IC50 in assay [1] (read-out: PbLuc IC50, dose response, unit inferred) was greater than 10000 nM; in assay [4], greater than 20 µM; in assay [5] it was greater than 10 µM. Further, the values for the inhibition at 10 µM in assay [1] and in assay [5] were -2.2% and 5%, respectively. In addition, the Emax in assay [4] stood at 30%. The results for the cytotoxicity at 50 µM in assay [5] (setting [10]) and in assay [5] (setting [11]) were 14% and 20%, respectively.
